Where no end group is shown, it is not given here.
Experiments:
[1] = test system: Micrococcus luteus ATCC4698; assay: Antibacterial activity screen at 128 µM; details: 128 µM peptide
[2] = ABTS+ radical scavenging assay; assay type: biochemical; details: 1 mg/mL c_AMPs
NIH/3T3 cells = assay: Cytotoxicity assay; assay type: cell-based, murine; details: 128 µM peptide, 24 h, CCK-8, absorbance 450 nm, n = 3
Bacillus subtilis WB600 = assay: Antibacterial activity screen at 128 µM; details: 128 µM peptide
E. coli z44 = details: two-fold dilutions 128 µM to 1 µM; CaMHB, 37 °C, 16 h, OD600; n = 3
S. aureus 09057 = details: two-fold dilutions 128 µM to 1 µM; CaMHB, 37 °C, 16 h, OD600; n = 3
[3] = test system: Candida albicans ATCC10231; assay: Antifungal activity assay at 128 µM; assay type: cell-based; details: 128 µM peptide; growth curves (Supplementary Fig. 11)

With KLKGLLGGKKKLK [A1] the “inhibition of M. luteus ATCC4698 growth” value [1] was “completely inhibit”.
With KKPRPWPWKRRKK [D4] the “ABTS^+ free radical scavenging rate” value [2] was 72%.
With GKGAKKGLKGLKG [B3] the cytotoxicity rate (NIH/3T3 cells) was 6.97%.
For GLCGKGGKCCCGC [C1], the “inhibition of M. luteus ATCC4698 growth” value [1] was “completely inhibit” and the “effect on B. subtilis WB600” value (Bacillus subtilis WB600) was “negatively impacted”.
For KKGLGGKLLACKG [A3], the “ABTS^+ free radical scavenging rate” value [2] was no less than 90%, the “inhibition of M. luteus ATCC4698 growth” value [1] was “completely inhibit” and the “time for which growth of B. subtilis WB600 was halted post treatment” value (Bacillus subtilis WB600; growth curves (Supplementary Fig. 11), no inhibition at 16 h) was “up to 3 h”.
In the case of IRPWRKPRWPWKR [D2], the “minimum inhibitory concentration (MIC), E. coli z44” value (E. coli z44) is reported as 8 µM and the “MIC, S. aureus 09057” value (S. aureus 09057) is reported as 32 µM.
In the case of CLCGGKGKKLGKG [C4], the “time for which growth of C. albicans ATCC10231 was inhibited post treatment” value [3] is reported as “up to 2 h”.
